Source: ChEMBL document CHEMBL1201862, “PubChem BioAssay data set” (2004)
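Five compound concentrations were applied to cells in 96-well plates for 48 hours; endpoints were derived by simple linear interpolation of the resulting dose-response curve. Abbreviation: GI50, concentration required for 50% inhibition of growth.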 Activity calls are given as the source filed them. No stated cut-off is given here; in the data, active = GI50 up to about 1.1 µM and inactive = higher.

How the values were obtained:
Assay in all cases: DTP human tumour cell line panel, 48 h
[1] = system: COLO 205
[2] = system: PC-3
[3] = system: HOP-62
[4] = system: MDA-MB-231
[5] = system: SNB-19
[6] = system: SF-539
[7] = system: SK-OV-3
[8] = system: DU-145
[9] = system: UACC-257
[10] = system: UO-31
[11] = system: SR
[12] = system: KM12
[13] = system: BT-549
[14] = system: MOLT-4
[15] = system: HCC 2998
[16] = system: TK-10
[17] = system: MDA-MB-435
[18] = system: NCI-H460
[19] = system: CAKI-1
[20] = system: OVCAR-3

Row | SMILES | GI50 [1] | GI50 [2] | GI50 [3] | GI50 [4] | GI50 [5] | GI50 [6] | GI50 [7] | GI50 [8] | GI50 [9] | GI50 [10] | GI50 [11] | GI50 [12] | GI50 [13] | GI50 [14] | GI50 [15] | GI50 [16] | GI50 [17] | GI50 [18] | GI50 [19] | GI50 [20]
1 | COC(=O)c1c(O)ccc2c1c1c(n2Cc2cccc(C)c2)C(=O)c2ccccc2C1=O | 1.67 µM (inactive) | 11 µM (inactive) | 16.1 µM (inactive) | 16.1 µM (inactive) | 14.1 µM (inactive) | 14.8 µM (inactive) | 11.4 µM (inactive) | 14.4 µM (inactive) | 16.6 µM (inactive) | 5.92 µM (inactive) | 4.98 µM (inactive) | 11 µM (inactive) | 15 µM (inactive) | 4.24 µM (inactive) | 2.7 µM (inactive) | 12 µM (inactive) | 9.82 µM (inactive) | 4.29 µM (inactive) | 11.8 µM (inactive) | 8.2 µM (inactive)
2 | COC(=O)C1(Cc2ccc3c(c2)CCC3)Cc2ccccc2C1=O (stereo not given) | 9.66 µM (inactive) | 7.69 µM (inactive) | 14.2 µM (inactive) | 27.2 µM (inactive) | 20.7 µM (inactive) | 16 µM (inactive) | 15.7 µM (inactive) | 16.6 µM (inactive) | 18.5 µM (inactive) | 17.1 µM (inactive) | 6.47 µM (inactive) | 1.55 µM (inactive) | 11.5 µM (inactive) | 4.45 µM (inactive) | 14.6 µM (inactive) | 12.3 µM (inactive) | 2.97 µM (inactive) | 28.4 µM (inactive) | 19.6 µM (inactive) | 14.5 µM (inactive)
3 | O=C1N/C(=N/N=C\C(O)C(O)C(O)C(O)CO)N/C1=C\c1ccc(Cl)cc1 (stereo not given) | 8 µM (inactive) | 5.52 µM (inactive) | 2.72 µM (inactive) | 4.81 µM (inactive) | 2.73 µM (inactive) | 0.332 µM (active) | 16.6 µM (inactive) | 15.2 µM (inactive) | 14.5 µM (inactive) | 44.1 µM (inactive) | 4.04 µM (inactive) | 22.1 µM (inactive) | 5.52 µM (inactive) | 3.9 µM (inactive) | 12.4 µM (inactive) | 4.8 µM (inactive) | 7.14 µM (inactive) | 15.7 µM (inactive) | > 57.7 µM (inactive) | 2.18 µM (inactive)
4 | CC(=O)C(O)N1C(=O)C=CC1=O (stereo not given) | 1.56 µM (inactive) | 6.11 µM (inactive) | 19.5 µM (inactive) | 5.05 µM (inactive) | 17.6 µM (inactive) | 5.41 µM (inactive) | 25.2 µM (inactive) | 12.8 µM (inactive) | 6 µM (inactive) | 5.86 µM (inactive) | 1.99 µM (inactive) | 18.9 µM (inactive) | 8 µM (inactive) | 2.05 µM (inactive) | 21 µM (inactive) | 2.53 µM (inactive) | 17.7 µM (inactive) | 3.58 µM (inactive) | 1.79 µM (inactive) | 17.6 µM (inactive)
5 | C[S+]([O-])c1ncc2c(n1)-c1ccccc1OC2 (stereo not given) | 68.1 µM (inactive) | > 100 µM (inactive) | > 100 µM (inactive) | > 100 µM (inactive) | > 100 µM (inactive) | > 100 µM (inactive) | > 100 µM (inactive) | 38.6 µM (inactive) | 40.3 µM (inactive) | 22.3 µM (inactive) | > 100 µM (inactive) | > 100 µM (inactive) | > 100 µM (inactive) | > 100 µM (inactive) | 38.4 µM (inactive) | 45.7 µM (inactive) | > 100 µM (inactive) | > 100 µM (inactive) | 83.8 µM (inactive) | 56.2 µM (inactive)
6 | COc1ccc(N2C(=O)C(C)SC2c2cc3cc(Br)ccc3nc2Cl)cc1 (stereo not given) | 35.5 µM (inactive) | 25.4 µM (inactive) | 36.2 µM (inactive) | 31.6 µM (inactive) | 25.6 µM (inactive) | 27.4 µM (inactive) | 59.8 µM (inactive) | 57.3 µM (inactive) | 30.7 µM (inactive) | 33.6 µM (inactive) | 18.1 µM (inactive) | 30.8 µM (inactive) | 24.9 µM (inactive) | 20.9 µM (inactive) | 33.3 µM (inactive) | 38.6 µM (inactive) | 19.7 µM (inactive) | 30.9 µM (inactive) | 35.1 µM (inactive) | 34.9 µM (inactive)
